In patent US20260263384A1, “TRANSDERMAL ELLECTRICALLY CONDUCTIVE PATCH” (KIKKOMAN CORPORATION, priority 2023, published 2026):
Where a name gives a salt, the structure may show the parent alone.

Tests used:
[1] = cited from earlier work
[2] = system: skin-mimicking three-dimensional epidermal models (EPI-MODEL12, J-TEC); experiment: Evaluation of electro-osmosis (electro-permeation): drug permeation through three-dimensional epidermal model into reservoir solution with vs without electric current (permeation evaluation system 1), HPLC; details: ketoprofen solution pH 6.6, 20 μA for 2 hours
Procedure: A specific method for evaluating drug permeation into the skin is described. A 7 mm×7 mm carbon cloth is coated with 80 µl of a solution of multi-walled carbon nanotubes in two separate instances and dried at 60° C. The carbon cloth is washed with pure water and further dried to prepare an electrode to be provided directly on cells. Skin-mimicking three-dimensional epidermal models (EPI-MODEL12, J-TEC) are used as the cells. Phosphate-buffered saline (PBS) is used as a reservoir solution. An Ag/AgCl electrode is introduced into the reservoir solution. Subsequently, each electrode is electrically connected to a […] source meter. A drug is dissolved in an appropriate solution. The drug solution of 400 µl is added dropwise to the cells, and the carbon cloth electrode is soaked therein. First, an electrode on the cells is connected to the positive electrode, and the Ag/AgCl electrode on the reservoir solution side is connected to the negative electrode. […] In the same manner, comparative experiment of adding 400 µl of the same drug solution dropwise to the cells is performed without the application of the electric current. […] Analysis can be performed by HPLC analysis, mass analysis, or other means. The amount of permeation with the application of the electric current is compared with that without the application of the electric current. […]

Row | amount of permeation compared with a system without applying an electric current (100%) ([2]; electrode on the cells connected to positive electrode) [%] | amount of permeation relative to that measured in a system without applying an electric current (100%) ([2]; reversed direction, electrode on the cells connected to negative electrode) [%] | SMILES | pKa [1]
1 | – | – | CCCCNc1ccc(C(=O)OCCN(C)C)cc1 [tetracaine hydrochloride] | 8.4
2 | 306 | 231 | CC(C(=O)O)c1cccc(C(=O)c2ccccc2)c1 (stereo not drawn) [ketoprofen] | –
